Measurements as given in BindingDB's records for aid1799744 (Csar, 2012).

target: Mitogen-activated protein kinase 1 (Homo sapiens, UniProt P28482); assay: Assay 1
Sequence (P28482 whole entry): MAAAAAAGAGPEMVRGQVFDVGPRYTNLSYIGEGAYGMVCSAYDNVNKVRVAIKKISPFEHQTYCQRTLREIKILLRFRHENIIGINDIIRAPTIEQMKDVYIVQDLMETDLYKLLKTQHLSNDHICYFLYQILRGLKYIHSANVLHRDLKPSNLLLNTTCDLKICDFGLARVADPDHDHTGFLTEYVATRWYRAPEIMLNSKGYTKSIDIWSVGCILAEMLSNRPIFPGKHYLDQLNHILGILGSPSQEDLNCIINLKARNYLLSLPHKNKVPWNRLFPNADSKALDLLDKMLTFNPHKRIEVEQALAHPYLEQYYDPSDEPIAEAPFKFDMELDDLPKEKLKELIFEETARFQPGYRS

Compound | Ki [nM]
CCNc1nccc(-c2c[nH]c(C(=O)N[C@H](CO)c3ccccc3)c2)n1 [erk000068] | 100
COc1cccc(CNC(=O)c2cc(-c3nc(N)ncc3C)c[nH]2)c1 [erk000630] | 813
Cc1cnc(N)nc1-c1cc(C(=O)NCc2ccc(F)c(F)c2)n(C)c1 [erk000327] | 3470
O=C(NCc1ccc2c(c1)OCO2)c1cc(-c2ccnc(Nc3ccccc3)n2)c[nH]1 [erk000049] | 269
CC[C@@H](COC(=O)[C@@H](NC)C(C)C)Nc1ncc(C)c(-c2c[nH]c(C(=O)N[C@H](COC(=O)[C@@H](NC)C(C)C)c3cccc(Cl)c3)c2)n1 [erk000715] | 1910
CC[C@@H](COC(=O)COCCOC)Nc1ncc(C)c(-c2c[nH]c(C(=O)N[C@H](COC(=O)COCCOC)c3cccc(Cl)c3)c2)n1 [erk000716] | 427
CCc1cnc(N)nc1-c1c[nH]c(C(=O)N[C@H](CO)c2ccccc2)c1 [erk000065] | 288
Fc1cccc(-c2cnoc2-c2c[nH]c3ncc(-c4ccncc4)cc23)c1F [erk000712] | 191
Cc1cnc(Nc2nc(N3CCCCC3)nc3ccccc23)nc1-c1c[nH]c(C(=O)NCc2ccccc2)c1 [erk000377] | 2090
Cc1cnc(N)nc1-c1c[nH]c(C(=O)NCc2ccccc2)c1 [erk000103] | 832
CCNc1ncc(C)c(-c2c[nH]c(C(=O)NCc3ccccc3)c2)n1 [erk000047] | 89
CCNc1ncc(C)c(-c2c[nH]c(C(=O)N[C@@H](CO)c3cc(F)cc(C(F)(F)F)c3)c2)n1 [erk000478] | 120
Cc1cnc(N)nc1-c1cc(C(=O)NCc2ccc(F)c(Cl)c2)n(Cc2ccccc2)c1 [erk000317] | 11000
CCOC(=O)OC[C@H](CC)Nc1ncc(C)c(-c2c[nH]c(C(=O)N[C@H](CO)c3cccc(Cl)c3)c2)n1 [erk000669] | 27
Nc1nccc(-c2c[nH]c(C(=O)NCc3cccc(Cl)c3)c2)n1 [erk000664] | 525
Cc1cnc(N)nc1-c1c[nH]c(C(=O)NCc2cc(F)cc(F)c2)c1 [erk000629] | 977
NS(=O)(=O)c1cccc(Nc2nccc(-c3ccc(O)c(C(=O)O)c3)n2)c1 [erk000659] | 229
Cc1cnc(N)nc1-c1c[nH]c(C(=O)NCc2ccc(Cl)cc2Cl)c1 [erk000055] | 6760
COc1cccc(Nc2ncc(C)c(-c3c[nH]c(C(=O)N[C@H](CO)c4ccccc4)c3)n2)c1C [erk000531] | 79
CCNc1ncc(C)c(-c2c[nH]c(C(=O)NCc3cccc(C(F)(F)F)c3)c2)n1 [erk000062] | 141

Compound | Ki [nM]
Cc1cccnc1Nc1ncc(C)c(-c2c[nH]c(C(=O)N[C@H](CO)c3ccccc3)c2)n1 [erk000521] | 91
CC[C@@H](CO)Nc1ncc(Cl)c(N2CCN(C(=O)N[C@H](CO)c3cccc(Cl)c3)CC2)n1 [erk000711] | 38
Cc1cnc(NCCN2CCCC2)nc1-c1c[nH]c(C(=O)N[C@H](CO)c2ccccc2)c1 [erk000568] | 224
Cc1cccc([C@@H](CO)NC(=O)c2cc(-c3nc(Nc4ccccc4N(C)C)ncc3C)c[nH]2)c1 [erk000532] | 50
Cc1onc(-c2ccccc2)c1-c1ccnc(NC2CCC(O)CC2)n1 (stereo not drawn) [erk000075] | 1000
CC[C@@H](CO)Nc1ncc(C)c(-c2c[nH]c(C(=O)N[C@H](COC(=O)OC(C)C)c3cccc(Cl)c3)c2)n1 [erk000693] | 37
COc1ccccc1Nc1ncc(C)c(-c2c[nH]c(C(=O)N[C@H](CO)c3ccccc3)c2)n1 [erk000446] | 68
CC[C@@H](COC(=O)C(C)(C)C)Nc1ncc(C)c(-c2c[nH]c(C(=O)N[C@H](CO)c3cccc(Cl)c3)c2)n1 [erk000702] | 55
Cc1cnc(N[C@H]2CCCOC2)nc1-c1c[nH]c(C(=O)N[C@H](CO)c2cccc(Cl)c2)c1 [erk000640] | 28
CCNc1ncc(C)c(-c2c[nH]c(C(=O)N[C@@H](CCO)c3ccccc3)c2)n1 [erk000459] | 501
Cc1cnc(N)nc1-c1c[nH]c(C(=O)N[C@H](CO)c2ccccc2)c1 [erk000287] | 1910
Cc1cnc(N)nc1-c1c[nH]c(C(=O)NCc2ccc(F)c(Cl)c2)c1 [erk000304] | 372
Cc1cnc(Nc2ccccc2)nc1-c1c[nH]c(C(=O)N[C@H](COC(=O)CN)c2ccccc2)c1 [erk000645] | 55
Cc1cnc(NCC[C@@H]2CCCN2C)nc1-c1c[nH]c(C(=O)N[C@H](CO)c2ccccc2)c1 [erk000520] | 537
Cc1cnc(NCc2ccccn2)nc1-c1c[nH]c(C(=O)N[C@H](CO)c2ccccc2)c1 [erk000580] | 1120
O=C(c1cc(-c2ccnc(Nc3ccccc3)n2)c[nH]1)N1CCc2ccccc2C1 [erk000057] | 525
CC(=O)Nc1ncc(C)c(-c2c[nH]c(C(=O)N[C@H](CO)c3ccccc3)c2)n1 [erk000496] | 32
Cc1cnc(N)nc1-c1c[nH]c(C(=O)NCc2cccc(F)c2)c1 [erk000626] | 1260
CC(=O)NCCNc1ncc(C)c(-c2c[nH]c(C(=O)N[C@H](CO)c3ccccc3)c2)n1 [erk000560] | 58
CCNc1ncc(C)c(-c2c[nH]c(C(=O)NCc3ccc(F)c(F)c3)c2)n1 [erk000038] | 240

These reach a lower Ki. Values come first.

Ki [nM] | Compound
24 | COC[C@H](C)Nc1ncc(C)c(-c2c[nH]c(C(=O)N[C@H](CO)c3ccccc3)c2)n1 [erk000548]
18 | CCC[C@H](C)Nc1ncc(C)c(-c2c[nH]c(C(=O)N[C@H](CO)c3ccccc3)c2)n1 [erk000546]
17 | Cc1cnc(NCC2CCOCC2)nc1-c1c[nH]c(C(=O)N[C@H](CO)c2cccc(Cl)c2)c1 [erk000639]
16 | Cc1cnc(NC2Cc3ccccc3C2)nc1-c1c[nH]c(C(=O)N[C@H](CO)c2cccc(Cl)c2)c1 [erk000592]
15 | O=c1[nH][nH]c2cc(Nc3ncc(Nc4ccccc4)c(Nc4cc(C5CC5)[nH]n4)n3)ccc12 [erk000633]
15 | Cc1cnc(NC2CCNCC2)nc1-c1c[nH]c(C(=O)N[C@H](CO)c2cccc(Cl)c2)c1 [erk000623]
14 | Cc1cnc(NCc2ccccc2)nc1-c1c[nH]c(C(=O)N[C@H](CO)c2ccccc2)c1 [erk000439]
14 | Cc1cnc(NOCC(C)C)nc1-c1c[nH]c(C(=O)N[C@H](CO)c2cccc(Cl)c2)c1 [erk000597]
13 | CCONc1ncc(C)c(-c2cc(C(=O)N[C@H](CO)c3cccc(Cl)c3)n(C)c2)n1 [erk000701]
10 | Cc1ccc(-c2csc(Nc3ncc(C)c(-c4c[nH]c(C(=O)N[C@H](CO)c5ccccc5)c4)n3)n2)cc1 [erk000588]
9 | CCNc1ncc(C)c(-c2c[nH]c(C(=O)N[C@@H](CO)c3cccc(F)c3)c2)n1 [erk000479]
7 | Cc1cnc(NN(C)C)nc1-c1c[nH]c(C(=O)N[C@H](CO)c2ccccc2)c1 [erk000505]
7 | Cc1cnc(NCCc2ccccc2)nc1-c1c[nH]c(C(=O)N[C@H](CO)c2ccccc2)c1 [erk000578]
7 | Cc1ccc(Nc2ncc(C)c(-c3c[nH]c(C(=O)N[C@H](CO)c4cccc(Cl)c4)c3)n2)cc1 [erk000585]
6 | CCC(CC)Nc1ncc(C)c(-c2c[nH]c(C(=O)N[C@H](CO)c3ccccc3)c2)n1 [erk000547]
6 | Cc1ccc([C@@H](CO)NC(=O)c2cc(-c3nc(Nc4cccc(F)c4)ncc3C)c[nH]2)cc1F [erk000436]
6 | CCONc1ncc(C)c(-c2c[nH]c(C(=O)N[C@H](CO)c3cccc(Cl)c3)c2)n1 [erk000582]
6 | Cc1cnc(NC(C)(CO)CO)nc1-c1c[nH]c(C(=O)N[C@H](CO)c2ccccc2)c1 [erk000512]
6 | Cc1cnc(NCC(F)(F)F)nc1-c1cc(C(=O)N[C@H](CO)c2cccc(Cl)c2)n(C)c1 [erk000692]

Ki [nM] | Compound
5 | CCCONc1ncc(C)c(-c2c[nH]c(C(=O)N[C@H](CO)c3cccc(C)c3)c2)n1 [erk000614]
4 | CC[C@@H](COC)Nc1ncc(C)c(-c2c[nH]c(C(=O)N[C@H](CO)c3cccc(Cl)c3)c2)n1 [erk000557]
4 | Cc1cnc(Nc2cccc(C)c2C)nc1-c1c[nH]c(C(=O)N[C@H](CO)c2cccc(F)c2)c1 [erk000539]
4 | Cc1cnc(Nc2ccccc2)nc1-c1c[nH]c(C(=O)N[C@@H](CO)c2ccc(F)c(Cl)c2)c1 [erk000397]
4 | CC[C@@H](CO)Nc1ncc(Cl)c(-c2cc(C(=O)N[C@H](CO)c3ccccc3)n(C)c2)n1 [erk000710]
4 | Cc1cnc(N[C@@H](CO)CC2CC2)nc1-c1c[nH]c(C(=O)N[C@H](CO)c2ccccc2)c1 [erk000487]
3 | Cc1cnc(Nc2cccc(O)c2C)nc1-c1c[nH]c(C(=O)N[C@H](CO)c2ccccc2)c1 [erk000527]
2 | Cc1cccc([C@@H](CO)NC(=O)c2cc(-c3nc(NCC(C)C)ncc3C)c[nH]2)c1 [erk000523]
2 | Cc1cnc(NC2CCCCC2)nc1-c1c[nH]c(C(=O)N[C@H](CO)c2ccccc2)c1 [erk000534]
2 | CC[C@@H](CO)Nc1ncc(C)c(-c2c[nH]c(C(=O)N[C@H](CO)c3cccc(Cl)c3)c2)n1 [erk000507]
2 | Cc1cnc(NC2CCCC2)nc1-c1c[nH]c(C(=O)N[C@H](CO)c2cccc(Cl)c2)c1 [erk000644]
2 | CC[C@@H](CO)Nc1ncc(C)c(-c2c[nH]c(C(=O)N(C)[C@H](CO)c3cccc(Cl)c3)c2)n1 [erk000709]
2 | Cc1cnc(Nc2cccc(C(F)(F)F)c2)nc1-c1c[nH]c(C(=O)N[C@H](CO)c2ccccc2)c1 [erk000438]
2 | Cc1ccc([C@@H](CO)NC(=O)c2cc(-c3nc(Nc4ccccc4)ncc3C)c[nH]2)cc1F [erk000435]
2 | Cc1cnc(NC2CC2)nc1-c1c[nH]c(C(=O)N[C@H](CO)c2cccc(C(F)(F)F)c2)c1 [erk000492]
1 | Cc1cnc(NC2(CO)CC2)nc1-c1c[nH]c(C(=O)N[C@H](CO)c2ccccc2)c1 [erk000460]
1 | Cc1cnc(Nc2cccc(CO)c2C)nc1-c1c[nH]c(C(=O)N[C@H](CO)c2ccccc2)c1 [erk000541]
1 | Cc1cnc(N[C@H](C)C(C)C)nc1-c1c[nH]c(C(=O)N[C@H](CO)c2cccc(Cl)c2)c1 [erk000607]
0.5 | Cc1cnc(N[C@@H]2C[C@@H]2C)nc1-c1c[nH]c(C(=O)N[C@H](CO)c2ccccc2)c1 [erk000510]
